Experimental findings from patent US8563714B2, “Bridged spiro [2.4] heptane derivatives as ALX receptor and/or FPRL2 agonists” (Actelion Pharmaceuticals Ltd., priority 2009, dated 2013) are described below.

For one assay, the target named is T1, human ALX receptor (Homo sapiens, UniProt P25090).
T1 construct: expressed in transfected cells; host or cells: HEK293 (HEK293-hALXR-Gα16)
T1 sequence (P25090 1-351): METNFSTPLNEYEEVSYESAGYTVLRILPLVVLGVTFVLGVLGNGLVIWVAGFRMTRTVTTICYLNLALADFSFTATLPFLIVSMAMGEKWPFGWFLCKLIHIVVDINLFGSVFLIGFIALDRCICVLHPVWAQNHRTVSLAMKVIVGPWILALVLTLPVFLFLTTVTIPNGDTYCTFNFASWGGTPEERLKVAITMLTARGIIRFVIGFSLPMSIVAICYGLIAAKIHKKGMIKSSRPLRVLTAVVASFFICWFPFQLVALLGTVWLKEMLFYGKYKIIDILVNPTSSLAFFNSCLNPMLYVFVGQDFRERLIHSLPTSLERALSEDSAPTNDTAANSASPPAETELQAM
In words: Intracellular calcium measurements (FLIPR), agonistic activity in HEK293-hALXR-Gα16 cells. The note with it: Fluo-4 calcium FLIPR, normalized to WKYMVm 10 nM. The class given is cell-based. A digest of the protocol:
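Agonist-induced calcium flux was recorded by FLIPR (488/540 nm) in HEK293-hALXR-Gα16 cells pre-loaded with Fluo-4 AM (1 μM, 60 min, 37°C). Peak signal above baseline, after subtracting buffer addition, was expressed relative to WKYMVm at 10 nM final.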
Background: A change in cytosolic calcium serves as a functional read-out for many receptors and channels.

The target of a further assay is T2, human FPRL2 (Homo sapiens, UniProt P25089).
T2 construct: expressed in transfected cells; host or cells: HEK293 (HEK293-hFPRL2-Gα16)
T2 sequence (P25089 1-353): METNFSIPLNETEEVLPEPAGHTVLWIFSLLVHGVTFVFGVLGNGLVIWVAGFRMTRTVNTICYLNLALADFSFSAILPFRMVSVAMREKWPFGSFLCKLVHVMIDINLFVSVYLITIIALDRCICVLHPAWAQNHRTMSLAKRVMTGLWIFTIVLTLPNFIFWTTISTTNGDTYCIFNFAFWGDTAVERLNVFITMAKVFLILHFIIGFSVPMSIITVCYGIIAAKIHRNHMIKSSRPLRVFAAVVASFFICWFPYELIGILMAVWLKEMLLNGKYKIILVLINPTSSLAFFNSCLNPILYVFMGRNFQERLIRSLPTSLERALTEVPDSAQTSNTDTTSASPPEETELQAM
In words: Intracellular calcium measurements (FLIPR), agonistic activity in HEK293-hFPRL2-Gα16 cells. The note with it: Fluo-4 calcium FLIPR, normalized to GLY14-Humanin 100 nM. The class given is cell-based. A digest of the protocol:
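Peak values after baseline subtraction are expressed relative to 100 nM Gly14-Humanin; compounds diluted in assay buffer from 10 mM DMSO stocks.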

Where only a bound is given, the exact number is not on record here.

As a reminder, the EC50 is the concentration at which the effect is half-maximal.

For `O=C(NCCCCN1CCCC1)[C@H]1[C@H](C(=O)NCc2cc(Cl)nc(Cl)c2)[C@@H]2C=C[C@H]1C21CC1` (racemic) [Example 367, (5R*)—N^5-[(2,6-Dichloropyridin-4-yl)methyl]-(6R*)—N^6-(4-pyrrolidino-butyl)-(4S*,7R*)-[4,7-ethenylene-spiro[2.4]heptane]-5,6-dicarboxamide], the 50% effective concentration (EC50) on human ALX receptor stood at 10600 nM; at human FPRL2 it was 644 nM.
For `NC(=O)CCNC(=O)[C@H]1[C@H](C(=O)NCc2ccc(Br)cc2F)[C@@H]2C=C[C@H]1C21CC1` [Example 282, (5R)—N^5-(4-Bromo-2-fluorophenyl-methyl)-(6R)—N^6-(3-amino-3-oxopropyl)-(4S,7R)-[4,7-ethenylene-spiro[2.4]heptane]-5,6-dicarboxamide] the same measures were 146 nM and over 25000 nM.
For `O=C(NCCCCN1CCCC1)C1C(C(=O)Nc2ccc(Br)cn2)C2C=CC1C21CC1` (racemic) [Example 119, (5R*)—N^5-(5-Bromo-pyridin-2-yl)-(6R*)—N^6-(4-pyrrolidin-1-yl-butyl)-(4S*,7R*)-[4,7-ethenylene-spiro[2.4]heptane]-5,6-dicarboxamide] the same measures were 17 nM and 404 nM.
As to `Cc1ccncc1C(=O)NC[C@H]1[C@H](C(=O)Nc2ccc(Br)cc2)[C@@H]2C=C[C@H]1C21CC1` (racemic) [Example 171, (5R*)—N^5-(4-Bromo-phenyl)-(6R*)-6-{[(4-methyl-pyridine-3-carbonyl)-amino]-methyl}-(4S*,7R*)-[4,7-ethenylene-spiro[2.4]heptane]-5-carboxamide], the concentration giving a half-maximal response (EC50) on human ALX receptor was 118 nM; on human FPRL2, 3220 nM.
For `NS(=O)(=O)c1ccc(CCNC(=O)[C@H]2[C@H](C(=O)NCCc3ccc(Cl)cc3)[C@@H]3C=C[C@H]2C32CC2)cc1` [Example 390, (5R)—N^5-(2-(4-Chlorophenyl)ethyl)-(6R)—N^6-(2-(4-aminosulfonyl-phenyl)-ethyl)-(4S,7R)-[4,7-ethenylene-spiro[2.4]heptane]-5,6-dicarboxamide], the EC50 at human ALX receptor is over 25000 nM; on human FPRL2, 576 nM.
For `CN(C)CC(=O)NC[C@H]1[C@H](C(=O)Nc2ccc(Br)cc2)[C@@H]2C=C[C@H]1C21CC1` (racemic) [Example 181, (5R*)—N^5-(4-Bromo-phenyl)-(6R*)-6-[(2-(N,N-dimethyl-amino)-acetylamino)-methyl]-(4S*,7R*)-[4,7-ethenylene-spiro[2.4]heptane]-5-carboxamide] the same measures were 265 nM and 2050 nM.
For `CN1CCN(CCCNC(=O)[C@H]2[C@H](C(=O)Nc3ncc(Br)s3)[C@@H]3C=C[C@H]2C32CC2)CC1` (racemic) [Example 265, (5R*)—N^5-(5-Bromothiazol-2-yl)-(6R*)—N^6-(3-(4-methylpiperazin-1-yl)-propyl)-(4S*,7R*)-[4,7-ethenylene-spiro[2.4]heptane]-5,6-dicarboxamide] the same measures were 49 nM and 462 nM.
For `CC(C)(C)OC(=O)N1CC(NC(=O)[C@H]2[C@H](C(=O)Nc3ccc(Br)cc3)[C@@H]3C=C[C@H]2C32CC2)C1` (racemic) [Example 98, (5R*)—N^5-(4-Bromophenyl)-(6R*)—N^6—(N-tert-butoxycarbonyl-azetidin-3-yl)-(4S*,7R*)-[4,7-ethenylene-spiro[2.4]heptane]-5,6-dicarboxamide] the same measures were 477 nM and 582 nM.
In the case of `O=C(NCCCCN1CCCC1)[C@H]1[C@H](C(=O)Nc2ccc(Cl)nc2)[C@@H]2C=C[C@H]1C21CC1` [Example 289, (5R)—N^5-(2-Chloro-pyridin-5-yl)-(6R)—N^6-(4-pyrrolidino-butyl)-(4S,7R)-[4,7-ethenylene-spiro[2.4]heptane]-5,6-dicarboxamide], the EC50 on human ALX receptor was 1.6 nM; at human FPRL2, 214 nM.
For `O=C(NCCCc1nc2ccccc2[nH]1)[C@H]1[C@H](C(=O)Nc2ncc(Br)s2)[C@@H]2C=C[C@H]1C21CC1` (racemic) [Example 248, (5R*)—N^5-(5-Bromo-thiazol-2-yl)-(6R*)—N^6-(3-(1H-benzoimidazol-2-yl)-propyl)-(4S*,7R*)-[4,7-ethenylene-spiro[2.4]heptane]-5,6-dicarboxamide] the same measures were 174 nM and 3060 nM.
For `NC(=O)CCNC(=O)[C@H]1[C@H](C(=O)Nc2ccc(Br)cc2)[C@@H]2CC[C@H]1C21CC1` (racemic) [Example 102, (5R*)—N^5-(4-Bromophenyl)-(6R*)—N^6-(2-carbamoyl-ethyl)-(4S*,7R*)-[4,7-ethylene-spiro[2.4]heptane]-5,6-dicarboxamide] the same measures were 0.46 nM and over 25000 nM.
For `NC(=O)CCNC(=O)[C@H]1[C@H](C(=O)NCc2cnc(Br)s2)[C@@H]2C=C[C@H]1C21CC1` [Example 283, (5R)—N^5-(2-Bromothiazol-5-yl-methyl)-(6R)—N^6-(3-amino-3-oxopropyl)-(4S,7R)-[4,7-ethenylene-spiro[2.4]heptane]-5,6-dicarboxamide] the same measures were 884 nM and over 25000 nM.
As to `O=C(NCCCCN1CCCC1)[C@H]1[C@H](C(=O)NCCC2=CCCCC2)[C@@H]2C=C[C@H]1C21CC1` (racemic) [Example 341, (5R*)—N^5-(2-(Cyclohexen-1-yl)ethyl)-(6R*)—N^6-(4-pyrrolidino-butyl)-(4S*,7R*)-[4,7-ethenylene-spiro[2.4]heptane]-5,6-dicarboxamide], the figures for the EC50 at human ALX receptor and on human FPRL2 were 1740 nM and 165 nM, respectively.
For `CN1CCN(CCCNC(=O)[C@H]2[C@H](C(=O)Nc3ccc(Br)cc3)[C@@H]3C=C[C@H]2C32CC2)CC1` (racemic) [Example 43, (5R*)—N^5-(4-Bromophenyl)-(6R*)—N^6-(3-(4-methyl-piperazin-1-yl)-propyl)-(4S*,7R*)-[4,7-ethenylene-spiro[2.4]heptane]-5,6-dicarboxamide] the same measures were 9.5 nM and 925 nM.
For `O=C(C=Cc1ccccc1)NC[C@H]1[C@H](C(=O)Nc2ccc(Br)cc2)[C@@H]2C=C[C@H]1C21CC1` (racemic) [Example 189, (5R*)—N^5-(4-Bromo-phenyl)-(6R*)-6-[(3-phenyl-acryloylamino)-methyl]-(4S*,7R*)-[4,7-ethenylene-spiro[2.4]heptane]-5-carboxamide] the same measures were 697 nM and 3240 nM.
Regarding `CC(C)(CO)NC(=O)[C@H]1[C@H](C(=O)Nc2ncc(Br)s2)[C@@H]2CC[C@H]1C21CC1` [Example 406, (5R)—N^5-(5-Bromothiazol-2-yl)-(6R)—N^6-(2-methyl-3-hydroxyprop-2-yl)-(4S,7R)-[4,7-ethylene-spiro[2.4]heptane]-5,6-dicarboxamide], the EC50 was 333 nM on human ALX receptor and 15200 nM at human FPRL2.
With `COCCCNC(=O)[C@H]1[C@H](C(=O)Nc2ccc(Br)cc2)[C@@H]2C=C[C@H]1C21CC1` (racemic) [Example 53, (5R*)—N^5-(4-Bromophenyl)-(6R*)—N^6-(3-methoxy-propyl)-(4S*,7R*)-[4,7-ethenylene-spiro[2.4]heptane]-5,6-dicarboxamide], the EC50 at human ALX receptor is 16 nM; on human FPRL2, 5030 nM.
Take `CC(C)CNC(=O)[C@H]1[C@H](C(=O)NCc2ccc(Br)cc2)[C@@H]2C=C[C@H]1C21CC1` (racemic) [Example 246, (5R*)—N^5-(4-Bromo-phenyl-methyl)-(6R*)—N^6-(isobutyl)-(4S*,7R*)-[4,7-ethenylene-spiro[2.4]heptane]-5,6-dicarboxamide]: the values for the EC50 at human ALX receptor and on human FPRL2 were 191 nM and 5330 nM, respectively.
For `O=C(NCCF)[C@H]1[C@H](C(=O)NCc2ccc(Br)cc2)[C@@H]2C=C[C@H]1C21CC1` (racemic) [Example 271, (5R*)—N^5-(4-Bromophenyl-methyl)-(6R*)—N^6-(2-fluoroethyl)-(4S*,7R*)-[4,7-ethenylene-spiro[2.4]heptane]-5,6-dicarboxamide] the same measures were 673 nM and over 25000 nM.
Consider `CC(=O)c1ccc(CNC(=O)C2C(C(=O)NCCCCN3CCCC3)C3CCC2C32CC2)o1` [Example 196, (5R)—N^5-(5-Acetyl-furan-2-yl-methyl)-(6R)—N^6-(4-pyrrolidin-1-yl-butyl)-(4S,7R)-[4,7-ethylene-spiro[2.4]heptane]-5,6-dicarboxamide], for which the values for the EC50 at human ALX receptor and on human FPRL2 were 21 nM and 1080 nM, respectively.
